target: CD80/PD-L1 binding (recombinant human His-CD80 protein and PD-L1-Fc fusion protein) (Homo sapiens (Human), UniProt Q9NZQ7); assay: In vitro inhibitory activity against CD80/PD-L1 binding (HTRF); conditions: read-out: IC50 for inhibiting CD80/PD-L1 binding in vitro
Description: In addition to PD-1, PD-L1 can also play an immune inhibition role by binding to CD80. Similarly, in vitro CD80/PD-L1 binding or binding inhibition test can also be conducted by homogeneous time-resolved fluorescence (HTRF). When the anti-hFc-Eu^3+ antibody and the anti-His-XL665 antibody are used to bind to the hFC tag fused to PD-L1 and the His tag fused to CD80 respectively, and after excitation with 320 nm laser, energy can be transferred from Eu element to XL665 fluorescein due to the binding of PD-L1 and CD80 to excite the XL665 fluorescein to emit light. When an inhibitor for inhibiting interaction of PD-L1 and CD80 is added, the binding of PD-L1 and CD80 is destroyed, causing a long distance between Eu and XL665. As a result, the energy cannot be transferred, and the XL665 fluorescein will not be excited.
The recombinant human CD80 protein with His tag (His-CD80 protein, Cat #: 10698-H08H-100) and the recombinant human PD-L1-Fc fusion protein (PD-L1-Fc fusion protein, Cat #: 10084-H02H-100) were purchased from Sino Biological Inc., anti-hFc-Eu^3+ antibody and anti-His-XL665 antibody were purchased from Cisbio, and other related reagents such as a diluent buffer (Diluent buffer 5 (Cat #: 62DL5DDC) and a detection buffer (PPI-European detection buffer, Cat #: 61DB9RDF) were purchased from Cisbio. Fluorescence detector Tecan (Spark 10M) was purchased from Tecan Company in Switzerland.
The experiment process was carried out according to the flow required in the operating manual of the test reagent (Invitrogen). The process was as follows: • (1) Experiment preparation: A test compound was diluted to different concentration gradients with the dilution buffer (the highest final concentration in a 20 μL final reaction system was 10 μM). The His-CD80 protein was diluted to 800 nM (the final concentration in the 20 final reaction system was 100 nM). The PD-L1-Fc fusion protein was diluted to 16 nM (the final concentration was 2 nM). The anti-His-XL665 antibody and the anti-hFc-Eu^3+antibody were diluted 20 times and 100 times respectively with the detection buffer according to reagent requirements. • (2) First, 5 μL of the test compound, 2.5 μL of the His-CD80 fusion protein and 2.5 μL of the […] fusion protein solution were well mixed and incubated at room temperature for 15 min; then, 5 μL of the anti-His-XL665 antibody and 5 μL of the anti-hFc-Eu^3+antibody were added to the system and further incubated for 3 h before test. • (3) During the test reaction, control groups were set, including a 0% inhibitory positive control without adding the test compound and a 100% inhibitory negative control without adding the CD80 protein. All tests were conducted by use of multiple holes. • (4) The fluorescence detector Tecan (Spark 10M) was used to detect the fluorescence signal of each hole. The excitation wavelength was 320 nm, and the emission wavelengths for detection were 620 nm and 665 nm, respectively. The strength of CD80/PD-L1 binding refers to a fluorescence signal ratio Em665/Em620. • (5) Calculation formula of binding inhibition rate of test compound: Inhibition rate (%)=[1−(fluorescence signal ratio of detected hole−fluorescence signal ratio of 100% inhibition negative control)]/(fluorescence signal ratio of 0% inhibition positive control — fluorescence signal ratio of 100% inhibition negative control)×100%. The 50% inhibition concentration (IC50) was calculated after the CD80/PD-L1 binding inhibition rates of the test compound with different concentration gradients were calculated respectively.

Chain of CD80/PD-L1 binding (recombinant human His-CD80 protein and PD-L1-Fc fusion protein) (Q9NZQ7 19-239): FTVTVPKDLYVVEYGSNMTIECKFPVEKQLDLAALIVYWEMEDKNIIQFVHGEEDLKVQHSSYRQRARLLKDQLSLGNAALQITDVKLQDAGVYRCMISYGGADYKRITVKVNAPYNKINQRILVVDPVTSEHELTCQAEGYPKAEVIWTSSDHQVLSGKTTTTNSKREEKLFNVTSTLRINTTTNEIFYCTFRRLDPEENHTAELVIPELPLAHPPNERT

Structure (SMILES) | IC50 [nM]
COCC12CCC(CCCN3CCc4c(nc(C(=O)Nc5cccc(-c6cccc(NC(=O)c7nc8c(n7C)CCN(CCC79CCC(C(=O)O)(CC7)C9)C8)c6C)c5Cl)n4C)C3)(CC1)C2 [Compound I-1, 4-(2-(2-((2′-chloro-3′-(5-(3-(4-(methoxymethyl)bicyclo[2. 2.1]heptan-1-yl)propyl)-1-methyl-4,5,6,7-tetrahydro-1H-imidazo[4,5-c]pyridine-2-carboxamido) -2-methyl-[1,1′-biphenyl]-3-yl)carbamoyl)-1-methyl-1,4,6,7-tetrahydro-5H-imidazo[4,5-c]pyridin-5-yl)ethyl)bicyclo[2.2.1]heptane-1-carboxylic acid] | 0.84
COCC12CCC(CCCN3CCc4c(nc(C(=O)Nc5cccc(-c6cccc(NC(=O)c7nc8c(n7C)CCN(CCC79CCC(C(=O)O)(CC7)C9)C8)c6Cl)c5C)n4C)C3)(CC1)C2 [Compound I-2, 4-(2-(2-((2-chloro-3′-(5-(3-(4-(methoxymethyl)bicyclo[2.2.1]heptan-1-yl)propyl)-1-methyl-4,5,6,7-tetrahydro-1H-imidazo[4,5-c]pyridine-2-carboxamido)-2′-methyl-[1,1′-biphenyl]-3-yl)carbamoyl)-1-methyl-1,4,6,7-tetrahydro-5H-imidazo[4,5-c]pyridin-5-yl)ethyl)bicyclo[2.2.1]heptane-1-carboxylic acid] | 0.79
CCOCC12CCC(CCN3CCc4c(nc(C(=O)Nc5cccc(-c6cccc(NC(=O)c7nc8c(n7C)CCN(CCC79CCC(C(=O)O)(CC7)C9)C8)c6C)c5Cl)n4C)C3)(CC1)C2 [Compound I-3, 4-(2-(2-((2′-chloro-3′-(5-(2-(4-(ethoxymethyl)bicyclo[2.2.1]heptan-1-yl)ethyl)-1-methyl-4,5 ,6,7-tetrahydro-1H-imidazo[4,5-c]pyridine-2-carboxamido)-2-methyl-[1,1′-biphenyl]-3-yl)carbamoyl)-1-methyl-1,4,6,7-tetrahydro-5H-imidazo[4,5-c]pyridin-5-yl)ethyl)bicyclo[2.2.1]heptane-1-carboxylic acid] | 0.96
COCC12CCC(CCN3CCc4c(nc(C(=O)Nc5cccc(-c6cccc(NC(=O)c7nc8c(n7C)CCN(CCC79CCC(C(=O)O)(CC7)C9)C8)c6C)c5Cl)n4C)C3)(CC1)C2 [Compound I-4, 4-(2-(2-((2′-chloro-3′-(5-(2-(4-(methoxymethyl)bicyclo[2. 2.1]heptan-1-yl)ethyl)-1-methyl-4,5,6,7-tetrahydro-1H-imidazo[4,5-c]pyridine-2-carboxamido)-2-methyl-[1 ,1′-biphenyl]-3-yl)carbamoyl)-1-methyl-1,4,6,7-tetrahydro-5H-imidazo[4,5-c]pyridin-5-yl)ethyl)bicyclo[2.2.1]heptane-1-carboxylic acid] | 2.78
COCC12CCC(CCN3CCc4c(nc(C(=O)Nc5cccc(-c6cccc(NC(=O)c7nc8c(n7C)CCN(CCC79CCC(C(=O)O)(CC7)C9)C8)c6Cl)c5C)n4C)C3)(CC1)C2 [Compound I-5, 4-(2-(2-((2-chloro-3′-(5-(2-(4-(methoxymethyl)bicyclo[2.2.1]heptan-1-yl)ethyl)-1-methyl-4,5,6,7-tetrahydro-1H-imidazo[4,5-c]pyridine-2-carboxamido)-2′-methyl-[1,1′-biphenyl]-3-yl)carbamoyl)-1-methyl-1,4,6,7-tetrahydro-5H-imidazo [4,5-c]pyridin-5-yl)ethyl)bicyclo[2.2.1]heptane-1-carboxylic acid] | 2.16
Cn1c(C(=O)Nc2cccc(-c3cccc(NC(=O)c4nc5c(n4C)CCN(CCC46CCC(C(=O)O)(CC4)C6)C5)c3Cl)c2Cl)nc2c1CCN(CCC13CCC(COC(F)F)(CC1)C3)C2 [Compound I-7, 4-(2-(2-((2,2′-dichloro-3′-(5-(2-(4-((difluoromethoxy)methyl)bicyclo[2.2.1]heptan-1-yl)ethyl)-1-methyl-4,5,6,7-tetrahydro-1H-imidazo[4,5-c]pyridine-2-carboxamido)-[1,1′-biphenyl]-3-yl)carbamoyl)-1-methyl-1,4,6,7-tetrahydro-5H-imidazo[4,5-c]pyridin-5-yl)ethyl)bicyclo[2.2.1]heptane-1-carboxylic acid] | 0.33
COCC12CCC(CN3CCc4c(nc(C(=O)Nc5cccc(-c6cccc(NC(=O)c7nc8c(n7C)CCN(CCC79CCC(C(=O)O)(CC7)C9)C8)c6Cl)c5Cl)n4C)C3)(CC1)C2 [Compound I-8, 4-(2-(2-((2,2′-dichloro-3′-(5-((4-(methoxymethyl)bicyclo[2.2.1]heptan-1-yl)methyl)-1-methyl-4,5,6,7-tetrahydro-1H-imidazo[4,5-c]pyridine-2-carboxamido)-[1, 1′-biphenyl]-3-yl)carbamoyl)-1-methyl-1,4,6,7-tetrahydro-5H-imidazo[4,5-c]pyridin-5-yl)ethyl)bicyclo[2.2.1]heptane-1-carboxylic acid] | 3.4
COCC12CCC(CCN3CCc4c(nc(C(=O)Nc5cccc(-c6cccc(NC(=O)c7nc8c(n7C)CCN(CCC79CCC(C(=O)O)(CC7)C9)C8)c6Cl)c5F)n4C)C3)(CC1)C2 [Compound I-9, 4-(2-(2-((2-chloro-2′-fluoro-3′-(5-(2-(4-(methoxymethyl)bicyclo[2.2.1]heptan-1-yl)ethyl)-1-methyl-4,5,6,7-tetrahydro-1H-imidazo [4,5-c]pyridine-2-carboxamido)-[1,1′-biphenyl]-3-yl)carbamoyl)-1-methyl-1,4,6,7-tetrahydro-5H-imidazo[4,5-c]pyridin-5-yl)ethyl)bicyclo[2.2.1]heptane-1-carboxylic acid] | 0.41
Cn1c(C(=O)Nc2cccc(-c3cccc(NC(=O)c4nc5c(n4C)CCN(CCC46CCC(C(=O)O)(CC4)C6)C5)c3Cl)c2F)nc2c1CCN(CCC13CCC(COC(F)F)(CC1)C3)C2 [Compound I-10, 4-(2-(2-((2-chloro-3′-(5-(2-(4-((difluoromethoxy)methyl)bicyclo[2.2.1]heptan-1-yl)ethyl)-1-methyl-4,5,6,7-tetrahydro-1H-imidazo[4,5-c]pyridine-2-carboxamido)-2′-fluoro-[1,1′-biphenyl]-3-yl)carbamoyl)-1-methyl-1,4,6,7-tetrahydro-5H-imidazo[4,5-c]pyridin-5-yl)ethyl)bicyclo[2.2.1]heptane-1-carboxylic acid] | 0.62
COCC12CCC(CCN3CCc4c(nc(C(=O)Nc5cccc(-c6cccc(NC(=O)c7nc8c(n7C)CCN(CCC79CCC(C(=O)O)(CC7)C9)C8)c6Cl)c5C#N)n4C)C3)(CC1)C2 [Compound I-11, 4-(2-(2-((2-chloro-2′-cyano-3′-(5-(2-(4-(methoxymethyl)bicyclo[2.2.1]heptan-1-yl)ethyl)-1-methyl-4,5,6,7-tetrahydro-1H-imidazo[4,5-c]pyridine-2-carboxamido)-[1,1′-biphenyl]-3-yl)carbamoyl)-1-methyl-1,4,6,7-tetrahydro-5H-imidazo[4,5-c]pyridin-5-yl)ethyl)bicyclo[2.2.1]heptane-1-carboxylic acid] | 1.43
COCC12CCC(CCN3CCc4c(nc(C(=O)Nc5cccc(-c6cccc(NC(=O)c7nc8c(n7C)CCN(CC79CCC(C(=O)O)(CC7)C9)C8)c6Cl)c5C)n4C)C3)(CC1)C2 [Compound I-12, 4-((2-((2-chloro-3′-(5-(2-(4-(methoxymethyl)bicyclo[2.2.1]heptan-1-yl)ethyl)-1-methyl-4,5,6,7-tetrahydro-1H-imidazo[4,5-c]pyridine-2-carboxamido)-2′-methyl-[1,1′-biphenyl]-3-yl)carbamoyl)-1-methyl-1,4,6,7-tetrahydro-5H-imidazo[4,5-c]pyridin-5-yl)methyl)bicyclo[2.2.1]heptane-1-carboxylic acid] | 1.64
